Entries after “also recorded” stand apart in the source; their conditions may differ. Blank lines part the entries; values can stand above or below the compound they belong to.
Columns and labels:
rats [1] = test: Forced swim test (FST) with citicoline, cytidine and choline; type: in vivo, rat; conditions: IP; for antidepressant effects in the FST: citicoline 50-500 mg/kg, cytidine 23.8-238 mg/kg, choline 13.7-136.6 mg/kg (molar equivalent amounts)
Experimental: The effects of citicoline were examined in the forced swim test (FST), a rodent model of depression as described herein. Because citicoline is rapidly converted to cytidine and choline, their effects were also examined in the FST.
Forced Swim Test (FST): One hundred-sixty seven rats were used in the FST studies, which were conducted as described previously (Carlezon et al. Biol. Psychiatry 51:882-889, 2002) with minor modifications. The FST is a two-day procedure in which rats swim under conditions in which escape is not possible. On the first day, rats are placed in clear, 65 cm tall-25 cm diameter cylinders filled to 48 cm with 25° C. water. The rats initially struggle to escape from the water, but eventually they adopt a posture of immobility in which they make only the movements necessary to keep their heads above water. After 15 min of forced swimming, the rats are removed from the water, dried with towels, and placed in a warmed enclosure for 30 min. The cylinders are emptied and cleaned between rats. When the rats are re-tested 24 hours later under identical conditions in 5 min sessions, immobility is increased. Treatment with standard antidepressant drugs within the 24 hr period between the first exposure to forced swimming and re-testing can attenuate facilitated immobility, an effect correlated with antidepressant efficacy in humans (Porsolt et al. Nature 266:730-732 1977; Detke et al. Psychopharmacology 121:66-72 1995, Carlezon et al. Biol. Psychiatry 51:882-889, 2002).

rats [2] = test: Locomotor activity after cytidine; type: in vivo, rat; conditions: 238 mg/kg, IP (optimally effective dose)
rats [3] = test: Conditioned rewarding effects of cytidine; type: in vivo, rat; conditions: 238 mg/kg, IP
brain phosphodiesters = test: Phosphorus-31 MR spectroscopy of lipid metabolite resonances during chronic CDP-choline administration; type: in vivo, human; conditions: 18 healthy subjects, mean age 70; 500 mg oral daily for 6 weeks, weeks 6-12 half continued, half placebo; p=0.008
Experimental: (§1) To assess whether chronic CDP-choline administration leads to detectable changes in lipid metabolite resonances in phosphorus-31 MR spectra, eighteen healthy subjects (mean age: 70) were administered 500 mg of an oral formulation of CDP-choline daily for a six week period. From weeks 6 to 12, half of the subjects continued to receive CDP-choline and half received placebo in a double-blind fashion. […] CDP-choline administration, therefore, improves measures of verbal fluency and spatial memory in healthy adults and results in increased brain phospholipid synthesis in older adults, particularly during chronic administration.

healthy subjects = test: Neuropsychological testing during chronic CDP-choline administration; type: in vivo, human; conditions: across all subjects at week twelve, 500 mg oral daily
Experimental: as §1

depressed subjects = test: 17-item Hamilton Depression Rating Scale (HDRS), eight weeks of treatment; type: in vivo, human
Experimental: (§2) In a second study, twelve depressed subjects (mean age 40) received 500 mg of an oral formulation of CDP-choline twice daily for eight weeks.

[4] = tested on: cytosolic choline resonance in the anterior cingulate cortex; test: Proton MR spectroscopy of cytosolic choline resonance; type: in vivo, human; conditions: associated with a successful response; 500 mg twice daily, eight weeks
Experimental: as §2

[5] = cited from earlier work
[6] = ingestion of large amounts in preclinical studies; cited from earlier work
male Sprague-Dawley rats = test: Forced swim test (FST): latency to become immobile and behavioral sampling; type: in vivo, rat; conditions: re-test
Experimental: The behavioral effects of the combination of uridine and omega-3 fatty acids were also evaluated in rats using the forced swim test (FST). This assay identifies in rodents treatments that have antidepressant effects in humans (Porsolt et al. Nature 266:730-732 1977; Carlezon et al. Biol. Psychiatry 51:882-889, 2002). Uridine was administered using systemic injection while omega-3 fatty acids were administered by supplementation within the diet for various periods of time (3, 10, or 30 days). The effects of uridine in rats maintained on the omega-3 fatty acid-enriched diet were also evaluated to determine if these effects were additive. […] The efficacy of each treatment in the FST was evaluated using two separate scoring methods: latency to become immobile, a simple and rapid method that identifies agents with antidepressant effects ([…] et al. J Neurosci 21:7397-7403 2001), and behavioral sampling, a more complex method that differentiates antidepressant drugs according to their pharmacological mechanisms (Detke et al. Psychopharmacology 121:66-72 1995). Finally, treatments with antidepressant-like effects in the FST were evaluated for non-specific effects on activity in an open field, which might complicate interpretation of the data from the swimming studies. Rats: A total of 197 male Sprague-Dawley rats (Charles River Laboratories, Boston Mass.) were used in these studies. The rats were housed in groups of four and weighed 325-375 gm at the time of behavioral testing. Rats were maintained on a 12 h light (0700-1900 h)-12 h dark cycle with free access to food and water except during testing. Experiments were conducted in accordance with the 1996 Guide for the Care and Use of Laboratory Animals (NIH) and McLean Hospital policies. Drugs: Dosages of desipramine HCl (DMI), fluoxetine HCl (FLX), citalopram HBr (CIT), and uridine (URI) were administered in a distilled water vehicle (VEH) at a volume of 1 cc/kg. All drugs were purchased from RBI-Sigma (St. Louis, Mo.) except CIT, which was a gift of Forest Laboratories (New York, N.Y.). […] The diets were equivalent in overall fat, protein, carbohydrate, and caloric content. Forced Swim Test (FST): One hundred-sixty seven rats were used in the FST studies, which were conducted as described previously (Carlezon et al. Biol. Psychiatry 51:882-889, 2002) with minor modifications. The FST is a two-day procedure in which rats swim under conditions in which escape is not possible. On the first day, rats are placed in clear, 65 cm tall-25 cm diameter cylinders filled to 48 cm with 25° C. water. The rats initially struggle to escape from the water, but eventually they adopt a posture of immobility in which they make only the movements necessary to keep their heads above water. After 15 min of forced swimming, the rats are removed from the water, dried with towels, and placed in a warmed enclosure for 30 min. The cylinders are emptied and cleaned between rats. When the rats are re-tested 24 hours later under identical conditions in 5 min sessions, immobility is increased. Treatment with standard antidepressant drugs within the 24 hr period between the first exposure to forced swimming and re-testing can attenuate facilitated immobility, an effect correlated with antidepressant efficacy in humans (Porsolt et al. Nature 266:730-732 1977; Detke et al. Psychopharmacology 121:66-72 1995, Carlezon et al. Biol. Psychiatry 51:882-889, 2002). Rats tested with DMI, FLX, CIT, or URI received 3 separate intraperitoneal (IP) injections of drug (or VEH), at 1 hr, 19 hr, and 23 hr after the first exposure to forced swimming. This commonly used regimen is sensitive to the antidepressant-like effects of many standard agents (Porsolt et al. Nature 266:730-732 1977; Detke et al. Psychopharmacology 121:66-72 1995; Carlezon et al. Biol. Psychiatry 51:882-889, 2002). […] There were 7-12 rats per treatment condition, and separate rats were used for each treatment regimen. […]

[7] = Weights of the rats at the time of the re-test; type: in vivo, rat; conditions: FST studies
Experimental: Rats: A total of 197 male Sprague-Dawley rats (Charles River Laboratories, Boston Mass.) were used in these studies. The rats were housed in groups of four and weighed 325-375 gm at the time of behavioral testing. Rats were maintained on a 12 h light (0700-1900 h)-12 h dark cycle with free access to food and water except during testing. Experiments were conducted in accordance with the 1996 Guide for the Care and Use of Laboratory Animals (NIH) and McLean Hospital policies.

[8] = eight weeks, CDP-choline 500 mg twice daily, fluoxetine 20 mg/day

Structure (SMILES): Nc1ccn([C@@H]2O[C@H](CO)[C@@H](O)[C@H]2O)c(=O)n1 [cytidine]
antidepressant effects in the FST (rats [1]): significant antidepressant effects
locomotor activity (rats [2]): did not affect locomotor activity
conditioned rewarding effects (rats [3]): did not affect locomotor activity or establish conditioned rewarding effects

Structure (SMILES): C[N+](C)(C)CCOP(=O)(O)OP(=O)([O-])OC[C@H]1O[C@@H](n2ccc(N)nc2=O)[C@H](O)[C@@H]1O [CDP-choline, cytidine 5′-diphosphocholine]
brain phosphodiesters (phosphorus-31 MR) (brain phosphodiesters): significant increase
visuospatial learning (healthy subjects; p=0.0001): increases
verbal learning (healthy subjects; p=0.003): increases
verbal fluency (healthy subjects; p=0.07): increases
mean 17-item HDRS score with eight weeks of treatment (depressed subjects; CDP-choline 500 mg oral twice daily, fluoxetine open label 20 mg/day, p<0.0001): 10±7
mean 17-item HDRS score before treatment (depressed subjects; baseline, CDP-choline 12 subjects, fluoxetine 41 subjects): 21±3
complete responses (subjects/total) (depressed subjects; [8]): 6/12
complete responses, share of subjects (depressed subjects; [8]): 50%
proton MR spectroscopic cytosolic choline resonance in the anterior cingulate cortex [4]: reduction
antidepressant effects in the FST (rats [1]): did not have antidepressant effects
effect in the FST at high doses (rats [1]; high doses of citicoline): small pro-depressant effects
CDP-choline and/or its metabolites absorbed ([5]; orally administered): more than 99%
excreted in feces ([5]; orally administered): less than 1%
excretion route lung ([5]; share of dose): 12.9%
excretion route urine ([5]; share of dose): 2.4%
rest of the dose metabolized and retained in tissues ([5]; share of dose): 83.9%
toxicity symptoms [6]: common cholinergic symptoms

weights of the rats [7]: did not affect
Structure (SMILES): O=c1ccn([C@@H]2O[C@H](CO)[C@@H](O)[C@H]2O)c(=O)[nH]1 [URI, uridine]
latency to become immobile (male Sprague-Dawley rats; URI 71.7 mg/kg IP): not
latency to become immobile (male Sprague-Dawley rats; URI 130 mg/kg IP): not
immobility (male Sprague-Dawley rats; URI 239 mg/kg IP): reduced immobility
latency to become immobile (male Sprague-Dawley rats; URI 239 mg/kg IP): increased latencies
swimming behaviors (male Sprague-Dawley rats; URI 239 mg/kg IP): increased swimming behaviors
latency to become immobile, effect over doses (male Sprague-Dawley rats; URI alone 71.7, 130, 239 mg/kg IP): dose-dependent effects; also recorded: dose-dependently increased latencies to become immobile
occurrences of climbing (male Sprague-Dawley rats; URI alone 71.7-239 mg/kg IP): without affecting climbing
occurrences of immobility, effect over doses (male Sprague-Dawley rats; URI alone 71.7-239 mg/kg IP): significantly affected; also recorded: dose-dependently decreased immobility
occurrences of swimming, effect over doses (male Sprague-Dawley rats; URI alone 71.7-239 mg/kg IP): significantly affected; also recorded: increased swimming

From patent US20100197628A1, “METHODS OF TREATING PSYCHIATRIC, SUBSTANCE ABUSE, AND OTHER DISORDERS USING COMBINATIONS CONTAINING OMEGA-3 FATTY ACIDS” (priority 2003, published 2010)
